Results as given in PubChem BioAssay AID2060509 (Molecular Pharmacology Branch, DTP, NCI, 2025).

Tested on: 485176-168-R4-J1-PDC spheroids with HUVEC/MSC, viability
Assay: Anticancer human tumor 485176-168-R4-J1-PDC patient-derived pancreatic adenocarcinoma cell line growth inhibition [GQUAD]
Details: for IC50: curve of first compound; for viability, T/C: stronger effect = lower value
Procedure, shortened: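 Viability of tumor cells grown as complex spheroids with endothelial and stromal cells, exposed to drug combinations. Top concentration at or near clinical Cmax (else 10 microM), diluted in half-log increments.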

[1] = second compound 0.0316 µM, first compound 0.0316 µM
[2] = second compound 0.0316 µM, first compound 0.1 µM
[3] = second compound 0.0316 µM, first compound 0.316 µM
[4] = second compound 0.0316 µM, first compound 1 µM
[5] = second compound 0.0316 µM, first compound 3.16 µM
[6] = second compound 0.0316 µM, first compound 10 µM
[7] = second compound 0.1 µM, first compound 0.0316 µM
[8] = second compound 0.1 µM, first compound 0.1 µM
[9] = second compound 0.1 µM, first compound 0.316 µM
[10] = second compound 0.1 µM, first compound 1 µM
[11] = second compound 0.1 µM, first compound 3.16 µM
[12] = second compound 0.1 µM, first compound 10 µM
[13] = second compound 0.316 µM, first compound 0.0316 µM
[14] = second compound 0.316 µM, first compound 0.1 µM
[15] = second compound 0.316 µM, first compound 0.316 µM
[16] = second compound 0.316 µM, first compound 1 µM
[17] = second compound 0.316 µM, first compound 3.16 µM
[18] = second compound 0.316 µM, first compound 10 µM
[19] = second compound 1 µM, first compound 0.0316 µM
[20] = second compound 1 µM, first compound 0.1 µM
[21] = second compound 1 µM, first compound 0.316 µM
[22] = second compound 1 µM, first compound 1 µM
[23] = second compound 1 µM, first compound 3.16 µM
[24] = second compound 1 µM, first compound 10 µM
[25] = second compound 3.16 µM, first compound 0.0316 µM
[26] = second compound 3.16 µM, first compound 0.1 µM
[27] = second compound 3.16 µM, first compound 0.316 µM
[28] = second compound 3.16 µM, first compound 1 µM
[29] = second compound 3.16 µM, first compound 3.16 µM
[30] = second compound 3.16 µM, first compound 10 µM
[31] = second compound 10 µM, first compound 0.0316 µM
[32] = second compound 10 µM, first compound 0.1 µM
[33] = second compound 10 µM, first compound 0.316 µM
[34] = second compound 10 µM, first compound 1 µM
[35] = second compound 10 µM, first compound 3.16 µM
[36] = second compound 10 µM, first compound 10 µM
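Further: spheroids exposed to compounds for seven days before readout.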
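Wherever viability, T/C is given: percent viability relative to DMSO vehicle control wells as 100%.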

Compound: COc1cc(C2c3cc4c(cc3C(OC3OC5COC(C)OC5C(O)C3O)C3COC(=O)C23)OCO4)cc(OC)c1O (stereo not drawn) + CN(C)c1ccc(Nc2c3ccc(NC(=O)CCN4CCCC4)cc3nc3cc(NC(=O)CCN4CCCC4)ccc23)cc1
- IC50 (second compound 0.0316 µM): 340 nM
- IC50 (second compound 0.1 µM): 476 nM
- IC50 (second compound 0.316 µM): 474 nM
- IC50 (second compound 1 µM): 412 nM
- IC50 (second compound 3.16 µM): 333 nM
- IC50 (second compound 10 µM): 303 nM
- viability, T/C [1]: 87%
- viability, T/C [2]: 74.7%
- viability, T/C [3]: 38.9%
- viability, T/C [4]: 39.6%
- viability, T/C [5]: 30.1%
- viability, T/C [6]: 9.84%
- viability, T/C [7]: 89.6%
- viability, T/C [8]: 82.8%
- viability, T/C [9]: 46.4%
- viability, T/C [10]: 41.2%
- viability, T/C [11]: 29.2%
- viability, T/C [12]: 12.1%
- viability, T/C [13]: 98.8%
- viability, T/C [14]: 81.5%
- viability, T/C [15]: 47.5%
- viability, T/C [16]: 42.2%
- viability, T/C [17]: 26.3%
- viability, T/C [18]: 10.1%
- viability, T/C [19]: 90.6%
- viability, T/C [20]: 71.6%
- viability, T/C [21]: 50.6%
- viability, T/C [22]: 39.1%
- viability, T/C [23]: 24.6%
- viability, T/C [24]: 9.92%
- viability, T/C [25]: 75.5%
- viability, T/C [26]: 63.7%
- viability, T/C [27]: 44.5%
- viability, T/C [28]: 39.5%
- viability, T/C [29]: 33.6%
- viability, T/C [30]: 12.8%
- viability, T/C [31]: 95.5%
- viability, T/C [32]: 69.8%
- viability, T/C [33]: 45.3%
- viability, T/C [34]: 36.9%
- viability, T/C [35]: 23.4%
- viability, T/C [36]: 10.2%

Compound: C=CCn1c(=O)c2cnc(Nc3ccc(N4CCN(C)CC4)cc3)nc2n1-c1cccc(C(C)(C)O)n1 + Cc1cnc(CNC(=O)c2c(=O)c3ccc(N4CCCN(C)CC4)nc3n3c2sc2ccccc23)cn1
- IC50 (second compound 0.0316 µM): 233 nM
- IC50 (second compound 0.1 µM): 165 nM
- IC50 (second compound 0.316 µM): 123 nM
- IC50 (second compound 1 µM): 36.5 nM
- IC50 (second compound 3.16 µM): < 31.6 nM
- IC50 (second compound 10 µM): < 31.6 nM
- viability, T/C [1]: 81.7%
- viability, T/C [2]: 64.8%
- viability, T/C [3]: 47.2%
- viability, T/C [4]: 11.5%
- viability, T/C [5]: 7.79%
- viability, T/C [6]: 3.94%
- viability, T/C [7]: 69.3%
- viability, T/C [8]: 70.4%
- viability, T/C [9]: 24.1%
- viability, T/C [10]: 10.6%
- viability, T/C [11]: 6.45%
- viability, T/C [12]: 3.77%
- viability, T/C [13]: 64%
- viability, T/C [14]: 55.9%
- viability, T/C [15]: 25%
- viability, T/C [16]: 9.59%
- viability, T/C [17]: 6.42%
- viability, T/C [18]: 3.31%
- viability, T/C [19]: 52%
- viability, T/C [20]: 36.4%
- viability, T/C [21]: 22.1%
- viability, T/C [22]: 10.2%
- viability, T/C [23]: 5.94%
- viability, T/C [24]: 4.18%
- viability, T/C [25]: 47.6%
- viability, T/C [26]: 40.1%
- viability, T/C [27]: 18.2%
- viability, T/C [28]: 9.87%
- viability, T/C [29]: 4.56%
- viability, T/C [30]: 5.42%
- viability, T/C [31]: 34.4%
- viability, T/C [32]: 37.5%
- viability, T/C [33]: 24.6%
- viability, T/C [34]: 10.6%
- viability, T/C [35]: 0.49%
- viability, T/C [36]: 0.25%

Compound: C=CC(=O)N1CCN(c2nc(=O)n(-c3c(C)ccnc3C(C)C)c3nc(-c4c(O)cccc4F)c(F)cc23)C(C)C1 (stereo not drawn) + CN(C)c1ccc(Nc2c3ccc(NC(=O)CCN4CCCC4)cc3nc3cc(NC(=O)CCN4CCCC4)ccc23)cc1
- IC50 (second compound 0.0316 µM): > 10000 nM
- IC50 (second compound 0.1 µM): > 10000 nM
- IC50 (second compound 0.316 µM): > 10000 nM
- IC50 (second compound 1 µM): > 10000 nM
- IC50 (second compound 3.16 µM): > 10000 nM
- IC50 (second compound 10 µM): > 10000 nM
- viability, T/C [1]: 111%
- viability, T/C [2]: 90.2%
- viability, T/C [3]: 102%
- viability, T/C [4]: 98.1%
- viability, T/C [5]: 120%
- viability, T/C [6]: 112%
- viability, T/C [7]: 88.5%
- viability, T/C [8]: 98.3%
- viability, T/C [9]: 110%
- viability, T/C [10]: 99.5%
- viability, T/C [11]: 114%
- viability, T/C [12]: 96.6%
- viability, T/C [13]: 90.5%
- viability, T/C [14]: 95.7%
- viability, T/C [15]: 96.2%
- viability, T/C [16]: 101%
- viability, T/C [17]: 119%
- viability, T/C [18]: 120%
- viability, T/C [19]: 128%
- viability, T/C [20]: 110%
- viability, T/C [21]: 94.8%
- viability, T/C [22]: 108%
- viability, T/C [23]: 125%
- viability, T/C [24]: 98.6%
- viability, T/C [25]: 108%
- viability, T/C [26]: 95.6%
- viability, T/C [27]: 90.5%
- viability, T/C [28]: 107%
- viability, T/C [29]: 114%
- viability, T/C [30]: 108%
- viability, T/C [31]: 86.2%
- viability, T/C [32]: 104%
- viability, T/C [33]: 86.6%
- viability, T/C [34]: 91.1%
- viability, T/C [35]: 88.2%
- viability, T/C [36]: 73.1%

Compound: CC(C)n1c(=O)n(C)c2cnc3cc(F)c(-c4ccc(OCCCN5CCCCC5)nc4)cc3c21 + CN(C)c1ccc(Nc2c3ccc(NC(=O)CCN4CCCC4)cc3nc3cc(NC(=O)CCN4CCCC4)ccc23)cc1
- IC50 (second compound 0.0316 µM): > 10000 nM
- IC50 (second compound 0.1 µM): > 10000 nM
- IC50 (second compound 0.316 µM): > 10000 nM
- IC50 (second compound 1 µM): > 10000 nM
- IC50 (second compound 3.16 µM): > 10000 nM
- IC50 (second compound 10 µM): 5420 nM
- viability, T/C [1]: 89.8%
- viability, T/C [2]: 81.3%
- viability, T/C [3]: 104%
- viability, T/C [4]: 89.7%
- viability, T/C [5]: 93.3%
- viability, T/C [6]: 71.7%
- viability, T/C [7]: 92.7%
- viability, T/C [8]: 91.1%
- viability, T/C [9]: 104%
- viability, T/C [10]: 95.7%
- viability, T/C [11]: 94.7%
- viability, T/C [12]: 68.4%
- viability, T/C [13]: 111%
- viability, T/C [14]: 90.4%
- viability, T/C [15]: 94.7%
- viability, T/C [16]: 98.2%
- viability, T/C [17]: 94.5%
- viability, T/C [18]: 82.1%
- viability, T/C [19]: 111%
- viability, T/C [20]: 95.9%
- viability, T/C [21]: 80.6%
- viability, T/C [22]: 79.7%
- viability, T/C [23]: 71.2%
- viability, T/C [24]: 77.8%
- viability, T/C [25]: 81.6%
- viability, T/C [26]: 91.7%
- viability, T/C [27]: 86.6%
- viability, T/C [28]: 85.2%
- viability, T/C [29]: 79.1%
- viability, T/C [30]: 59.9%
- viability, T/C [31]: 81.7%
- viability, T/C [32]: 65.7%
- viability, T/C [33]: 71.5%
- viability, T/C [34]: 64.5%
- viability, T/C [35]: 64.6%
- viability, T/C [36]: 36.3%
